Laboratory results: patent publication US20080293712A1, “Benzo[C][2,7]Naphtyridine Derivatives, Methods of Making Thereof and Methods of Use Thereof” (WYETH, priority 2007, published 2008)

Tests used:
Assay type in all cases: biochemical
PDK-1 = biological target: T1, PDK-1 (Homo sapiens, UniProt O15530); test: PDK-1 kinase inhibition ELISA assay (phosphorylation of His6-tagged SGK1 S422D by PDK-1); conditions: PDK-1 ELISA, Table 11; read-out: Average IC50
T1 sequence (O15530 1-556): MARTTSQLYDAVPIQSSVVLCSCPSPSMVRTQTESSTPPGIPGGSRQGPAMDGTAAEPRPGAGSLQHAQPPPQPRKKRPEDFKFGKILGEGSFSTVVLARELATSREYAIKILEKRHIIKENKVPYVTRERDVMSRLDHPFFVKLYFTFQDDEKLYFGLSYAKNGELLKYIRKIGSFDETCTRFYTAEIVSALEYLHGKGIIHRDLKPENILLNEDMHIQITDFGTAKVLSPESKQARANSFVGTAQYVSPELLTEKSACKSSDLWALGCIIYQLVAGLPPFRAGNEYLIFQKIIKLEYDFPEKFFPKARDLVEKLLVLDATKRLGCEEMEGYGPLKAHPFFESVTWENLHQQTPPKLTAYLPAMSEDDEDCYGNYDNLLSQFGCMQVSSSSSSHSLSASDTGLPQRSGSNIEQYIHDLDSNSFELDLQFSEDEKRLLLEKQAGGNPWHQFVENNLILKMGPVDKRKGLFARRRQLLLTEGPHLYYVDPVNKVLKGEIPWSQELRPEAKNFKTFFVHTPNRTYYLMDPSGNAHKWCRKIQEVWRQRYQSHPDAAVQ

PKA = PKA (Homo sapiens, UniProt P17612); test: PKA kinase inhibition, Z'-LYTE FRET assay; conditions: 20 μM ATP
Akt1 = Akt1 (Homo sapiens, UniProt P31749); test: Akt1 kinase inhibition, Z'-LYTE FRET assay; conditions: 100 μM ATP
Description: The ability of illustrative Benzo[c][2,7]naphthyridine Derivatives to inhibit PKA, Akt1, S6K in vitro can be determined using a Fluorescence Resonance Energy Transfer (FRET) assay, such as a Z′-LYTE™ Kinase Assay Platform, commercially available from Invitrogen (c.f. Rodems et al., ASSAY Drug Devel. Technol. 1:9-19 (2002) and Zhang et al., J. Biomol. Screen. 4:67-73 (1999)). Z′-Lyte™ assay is an in vitro FRET-based assay that utilizes differential sensitivity of phosphorylated and non-phosphorylated peptides to proteolytic cleavage. The peptide substrate (also available from Invitrogen for each of PKA, Akt1 and S6K) is labeled with two different fluorophores, a fluorescence donor at one end of the peptide and a fluorescence acceptor at the other end of the peptide. In the primary kinase reaction, the kinase phosphorylates the peptide substrate in the presence of ATP. In the secondary reaction, a site-specific protease recognizes and cleaves non-phosphorylated peptides, but not phosphorylated peptides. Cleavage disrupts FRET between the donor and acceptor fluorophores on the peptide, whereas uncleaved phosphorylated peptides maintain FRET. Based on a formula that uses the ratio of donor emission (at 460 nm) to acceptor emission (at […]) after excitation of the donor fluorophore at 400 nm, the extent of phosphorylation of the peptide substrates is calculated. IC50 values of illustrative Benzo[c][2,7]naphthyridine Derivatives, shown in Table 12, are calculated using LSW Data Analysis package add-in for Excel (Microsoft).

Akt1, sequence (P31749 whole entry, species assumed): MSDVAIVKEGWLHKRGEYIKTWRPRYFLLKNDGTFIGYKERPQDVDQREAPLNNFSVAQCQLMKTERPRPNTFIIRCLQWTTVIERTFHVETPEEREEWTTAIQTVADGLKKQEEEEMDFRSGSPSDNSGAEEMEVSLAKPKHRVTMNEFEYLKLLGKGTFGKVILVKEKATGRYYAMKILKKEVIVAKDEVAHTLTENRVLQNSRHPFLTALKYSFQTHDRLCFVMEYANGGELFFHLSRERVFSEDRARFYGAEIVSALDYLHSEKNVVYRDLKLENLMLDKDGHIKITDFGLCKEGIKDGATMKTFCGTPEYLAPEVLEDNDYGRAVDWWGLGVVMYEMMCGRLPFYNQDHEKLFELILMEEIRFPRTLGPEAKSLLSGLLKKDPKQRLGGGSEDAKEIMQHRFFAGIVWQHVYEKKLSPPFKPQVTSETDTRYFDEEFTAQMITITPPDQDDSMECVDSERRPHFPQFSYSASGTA

| IC50 (PDK-1) [nM] | IC50 (PKA) [nM] | IC50 (Akt1) [nM] | SMILES |
| --- | --- | --- | --- |
| 179 | > 20000 | 15000 | Nc1nc(-n2ccnc2)cc2c1cnc1cc(C#CCCn3ccnc3)ccc12 [Ia-30, 2-(1H-imidazol-1-yl)-8-[4-(1H-imidazol-1-yl)but-1-yn-1-yl]benzo[c]-2,7-naphthyridin-4-amine] |
| > 5000 | > 20000 | > 20000 | CC(C)(C)OC(=O)N[C@H](COc1cncc(-c2cc3c(cnc4cc(C#CCCn5ccnc5)ccc43)c(N)n2)c1)Cc1ccccc1 [Ia-6, tert-Butyl-{(1S)-2-[(5-{4-amino-8-[4-(1H-imidazol-1-yl)but-1-yn-1-yl]benzo[c]-2,7-naphthyridin-2-yl}pyridin-3-yl)oxy]-1-benzylethyl}carbamate] |
| 205 | > 20000 | 2800 | COc1cc2ncc3c(N)nc(-n4cnc(CO)c4)cc3c2cc1OC [Ib-69, [1-(4-Amino-8,9-dimethoxybenzo[c]-2,7-naphthyridin-2-yl)-1H-imidazol-4-yl]methanol] |
| 498 | > 10000 | 380 | COc1cc2c(cc1OCCCN1CCCC1)ncc1c(N)nc(-n3ccnc3)cc12 [Ia-15, 2-(1H-imidazol-1-yl)-9-methoxy-8-(3-(pyrrolidin-1-yl)propoxy)benzo[c][2,7]naphthyridin-4-amine] |
| 170 | > 10000 | 380 | COc1cc2c(cc1OCCCN1CCOCC1)ncc1c(N)nc(-n3ccnc3)cc12 [Ia-16, 2-(1H-imidazol-1-yl)-9-methoxy-8-(3-morpholinopropoxy)benzo[c][2,7]naphthyridin-4-amine] |
| 2030 | > 20000 | 18000 | COCCOc1cc2ncc3c(N)nc(-n4cnc(-c5ccccc5)c4)cc3c2cc1OC [Ia-41, 9-Methoxy-8-(2-methoxyethoxy)-2-(4-phenyl-1H-imidazol-1-yl)benzo[c]-2,7-naphthyridin-4-amine] |
| 212 | > 10000 | 3000 | COc1cc2ncc3c(N)nc(-c4cncc(OC[C@@H](N)Cc5ccc(OCc6ccccc6)cc5)c4)cc3c2cc1OC [Ib-54, 2-[5-({(2S)-2-amino-3-[4-(benzyloxy)phenyl]propyl}oxy)pyridin-3-yl]-8,9-dimethoxybenzo[c]-2,7-naphthyridin-4-amine] |
| 385 | > 5000 | > 5000 | CCOc1cc2ncc3c(N)nc(-n4ccnc4)cc3c2cc1NC(C)=O [Ia-29, N-[4-amino-8-ethoxy-2-(1H-imidazol-1-yl)benzo[c]-2,7-naphthyridin-9-yl]acetamide] |
| > 5000 | > 10000 |  | COc1cc2c(cc1N1CCC(N3CCCC3)CC1)ncc1c(N)nc(-c3cccnc3C)cc12 [Ia-19, 9-methoxy-2-(2-methylpyridin-3-yl)-8-(4-pyrrolidin-1-ylpiperidin-1-yl)benzo[c]-2,7-naphthyridin-4-amine] |
| 193 | > 20000 | 180 | COc1cc2c(cc1OCc1ccccc1)ncc1c(N)nc(-n3ccnc3)cc12 [Ia-34, 8-(Benzyloxy)-2-(1H-imidazol-1-yl)-9-methoxybenzo[c]-2,7-naphthyridin-4-amine] |
| 108 | > 20000 | 350 | COCCOc1cc2ncc3c(N)nc(-n4cnc(C)c4)cc3c2cc1OC [Ia-42, 9-Methoxy-8-(2-methoxyethoxy)-2-(4-methyl-1H-imidazol-1-yl)benzo[c]-2,7-naphthyridin-4-amine] |
| 2120 | > 10000 | 4000 | COc1cc2c(cc1OCCCN1CCCC1)ncc1c(N)nc(-c3cccnc3C)cc12 [Ia-9, 9-Methoxy-2-(2-methylpyridin-3-yl)-8-(3-pyrrolidin-1-ylpropoxy)benzo[c]-2,7-naphthyridin-4-amine] |
| 617 | > 20000 | 16000 | CCOc1cc2ncc3c(N)nc(-n4ccnc4)cc3c2cc1NC(=O)Nc1ccc(N(C)C)cc1 [Ia-27, N-[4-amino-8-ethoxy-2-(1H-imidazol-1-yl)benzo[c]-2,7-naphthyridin-9-yl]-N′-[4-(dimethylamino)phenyl]urea] |
| 116 | 1250 | 230 | CCN1CCN(CC/C=C/c2ccc3c(c2)ncc2c(N)nc(-n4ccnc4)cc23)CC1 [Ia-25, 8-[(1E)-4-(4-ethylpiperazin-1-yl)but-1-en-1-yl]-2-(1H-imidazol-1-yl)benzo[c]-2,7-naphthyridin-4-amine] |
|  | > 20000 | 180 | COc1cc2ncc3c(N)nc(-n4ccnc4)cc3c2cc1OC [Ib-74, 2-(1H-imidazol-1-yl)-8,9-dimethoxybenzo[c]-2,7-naphthyridin-4-amine] |
| 531 |  | 2000 | CN(C)CC#Cc1ccc2c(c1)ncc1c(N)nc(-n3ccnc3)cc12 [Ia-36, 8-[3-(Dimethylamino)prop-1-yn-1-yl]-2-(1H-imidazol-1-yl)benzo[c]-2,7-naphthyridin-4-amine] |
| 26 |  |  | CCOC1(OCC)CCN(C[C@H](N)COc2cncc(-c3cc4c(cnc5cc(OC)c(OC)cc54)c(N)n3)c2)CC1 [Ib-5, 2-(5-{[(2S)-2-amino-3-(4,4-diethoxypiperidin-1-yl)propyl]oxy}pyridin-3-yl)-8,9-dimethoxybenzo[c]-2,7-naphthyridin-4-amine] |
| 38 |  |  | COc1cc2ncc3c(N)nc(-c4cncc(OC[C@@H](N)CN5CCC[C@@H]5c5nccs5)c4)cc3c2cc1OC [Ib-102, 2-[5-({(2S)-2-amino-3-[(2R)-2-(1,3-thiazol-2-yl)pyrrolidin-1-yl]propyl}oxy)pyridin-3-yl]-8,9-dimethoxybenzo[c][2,7]naphthyridin-4-amine] |
| 9640 |  |  | COc1cc2ncc3c(N)nc(N4CC[C@H](N(C)C)C4)cc3c2cc1OC [Ib-67, 2-[(3S)-3-(dimethylamino)pyrrolidin-1-yl]-8,9-dimethoxybenzo[c]-2,7-naphthyridin-4-amine] |
| 11 |  |  | COc1cc2ncc3c(N)nc(-c4cncc(OC[C@@H](N)CN(C)S(=O)(=O)c5ccccc5)c4)cc3c2cc1OC [Ib-79, N-[(2S)-2-amino-3-{[5-(4-amino-8,9-dimethoxybenzo[c][2,7]naphthyridin-2-yl)pyridin-3-yl]oxy}propyl]-N-methylbenzenesulfonamide] |
| 4 |  |  | COc1cc2ncc3c(N)nc(-c4cncc(OC[C@@H](N)CNC(C)(C)c5ccccn5)c4)cc3c2cc1OC [Ib-94, (2S)-3-{[5-(4-amino-8,9-dimethoxybenzo[c][2,7]naphthyridin-2-yl)pyridin-3-yl]oxy}-N1-(1-methyl-1-pyridin-2-ylethyl)propane-1,2-diamine] |
| 66 |  |  | COc1cc2ncc3c(N)nc(-c4cncc(OC[C@@H](N)CN5CCN(c6ccccn6)CC5)c4)cc3c2cc1OC [Ib-20, 2-(5-{[(2S)-2-amino-3-(4-pyridin-2-ylpiperazin-1-yl)propyl]oxy}pyridin-3-yl)-8,9-dimethoxybenzo[c]-2,7-naphthyridin-4-amine] |
| > 100 |  |  | COc1cc2ncc3c(N)nc(-c4cncc(C#CCN(C)[C@H](C)Cc5ccccc5)c4)cc3c2cc1OC [Ib-22, 8,9-Dimethoxy-2-[5-(3-{methyl[(1R)-1-methyl-2-phenylethyl]amino}prop-1-yn-1-yl)pyridin-3-yl]benzo[c]-2,7-naphthyridin-4-amine] |
| 3 |  |  | COc1cc2ncc3c(N)nc(-c4cncc(OC[C@@H](N)COc5nccs5)c4)cc3c2cc1OC [Ib-156, 2-(5-{[(2R)-2-amino-3-(1,3-thiazol-2-yloxy)propyl]oxy}pyridin-3-yl)-8,9-dimethoxybenzo[c][2,7]naphthyridin-4-amine] |
| 66 |  |  | COc1cc2ncc3c(N)nc(-c4cncc(Br)c4)cc3c2cc1OC [Ib-15, 2-(5-bromopyridin-3-yl)-8,9-dimethoxybenzo[c]-2,7-naphthyridin-4-amine] |
| 40 |  |  | COc1cc2ncc3c(N)nc(-c4cncc(OC[C@@H](N)CN(C)c5cccc(Cl)c5)c4)cc3c2cc1OC [Ib-112, (2S)-3-{[5-(4-amino-8,9-dimethoxybenzo[c][2,7]naphthyridin-2-yl)pyridin-3-yl]oxy}-N1-(3-chlorophenyl)-N1-methylpropane-1,2-diamine] |
